According to patent US20230233569A1 (Revolution Medicines, Inc., priority 2020, published 2023):
Where “and” joins values, the source holds several entries; their conditions need not be identical. Equal entries are not always repeated.

Legend:
KRAS G12V = KRAS G12V (Homo sapiens, UniProt P01116+P62937, G12V); experiment: Disruption of BRAF RBD interaction with Ras (FRET / MOA assay, with Cyclophilin A); format: biochemical; conditions: KRAS G12V; read-out: KRAS G12V FRET data IC50
Procedure, shortened: (§1)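 IC50 values reflect loss of K-Ras binding to BRAF RBD, read as a lowered TR-FRET ratio compared with DMSO, driven by compound-mediated K-Ras:Cyclophilin A complex formation. Compound top dose 30 μM final, 3-fold steps, 3 h incubation at 25 °C before a 1.5 h antibody step.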

KRAS G12S = KRAS G12S (Homo sapiens, UniProt P01116+P62937, G12S); experiment: as above; format: biochemical; conditions: read-out: KRAS G12S FRET data, IC50
Sequence of KRAS G12S (P01116 1-169 isoform P01116-2 G12S limits assumed): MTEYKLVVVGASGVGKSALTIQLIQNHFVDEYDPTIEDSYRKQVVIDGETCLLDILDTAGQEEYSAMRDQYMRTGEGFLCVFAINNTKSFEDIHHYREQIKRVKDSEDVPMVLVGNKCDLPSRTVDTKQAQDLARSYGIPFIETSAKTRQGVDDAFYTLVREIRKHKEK
Sequence of KRAS G12S (P62937 whole entry): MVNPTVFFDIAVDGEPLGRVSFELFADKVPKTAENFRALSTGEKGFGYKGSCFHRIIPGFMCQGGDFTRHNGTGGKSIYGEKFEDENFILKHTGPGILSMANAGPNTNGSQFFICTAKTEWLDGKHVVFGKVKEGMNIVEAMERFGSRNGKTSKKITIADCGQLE
Procedure, shortened: as §1

KRAS WT = KRAS WT (Homo sapiens, UniProt P01116+P62937); experiment: as above; format: biochemical; conditions: KRAS WT; read-out: KRAS WT FRET data IC50
Sequence of KRAS WT (P01116 1-169 isoform P01116-2 limits assumed): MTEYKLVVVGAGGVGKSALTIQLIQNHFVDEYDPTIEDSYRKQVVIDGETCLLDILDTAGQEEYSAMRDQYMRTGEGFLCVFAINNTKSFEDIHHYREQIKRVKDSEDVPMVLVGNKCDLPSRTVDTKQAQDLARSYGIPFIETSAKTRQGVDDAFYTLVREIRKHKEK
Sequence of KRAS WT (P62937 whole entry): as the sequence (P62937 whole entry) above
Procedure, shortened: as §1

KRAS G12C = KRAS G12C (Homo sapiens, UniProt P01116+P62937, G12C); experiment: as above; format: biochemical; conditions: KRAS G12C; read-out: KRAS G12C FRET data IC50
Sequence of KRAS G12C (P01116 1-169 isoform P01116-2 G12C): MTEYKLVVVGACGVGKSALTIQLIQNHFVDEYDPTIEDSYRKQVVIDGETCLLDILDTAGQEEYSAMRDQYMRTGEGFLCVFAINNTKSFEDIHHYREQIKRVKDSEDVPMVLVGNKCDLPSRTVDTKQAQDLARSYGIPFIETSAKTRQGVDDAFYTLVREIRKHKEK
Sequence of KRAS G12C (P62937 whole entry): as the sequence (P62937 whole entry) above
Procedure, shortened: as §1

KRAS G12D = KRAS G12D (Homo sapiens, UniProt P01116+P62937, G12D); experiment: as above; format: biochemical; conditions: read-out: KRAS G12D FRET data, IC50
Sequence of KRAS G12D (P01116 1-169 isoform P01116-2 G12D limits assumed): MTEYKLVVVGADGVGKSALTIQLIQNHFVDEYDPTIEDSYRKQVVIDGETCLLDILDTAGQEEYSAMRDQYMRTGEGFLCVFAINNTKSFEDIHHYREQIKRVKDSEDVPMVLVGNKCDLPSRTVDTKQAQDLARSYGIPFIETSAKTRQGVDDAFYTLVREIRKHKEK
Sequence of KRAS G12D (P62937 whole entry): as the sequence (P62937 whole entry) above
Procedure, shortened: as §1

NRAS G12C = NRAS G12C (Homo sapiens, UniProt P01111+P62937, G12C); experiment: as above; format: biochemical; conditions: NRAS G12C; read-out: NRAS G12C FRET data IC50
Sequence of NRAS G12C (P01111 whole entry G12C): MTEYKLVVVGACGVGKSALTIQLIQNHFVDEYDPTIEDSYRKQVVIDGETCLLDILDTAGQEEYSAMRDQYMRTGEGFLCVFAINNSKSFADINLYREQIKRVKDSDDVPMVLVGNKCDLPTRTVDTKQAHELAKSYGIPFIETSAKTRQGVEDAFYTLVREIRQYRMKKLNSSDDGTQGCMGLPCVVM
Sequence of NRAS G12C (P62937 whole entry): as the sequence (P62937 whole entry) above

KRAS G13D = KRAS G13D (Homo sapiens, UniProt P01116+P62937, G13D); experiment: as above; format: biochemical; conditions: KRAS G13D; read-out: KRAS G13D FRET data IC50
Sequence of KRAS G13D (P01116 1-169 isoform P01116-2 G13D limits assumed): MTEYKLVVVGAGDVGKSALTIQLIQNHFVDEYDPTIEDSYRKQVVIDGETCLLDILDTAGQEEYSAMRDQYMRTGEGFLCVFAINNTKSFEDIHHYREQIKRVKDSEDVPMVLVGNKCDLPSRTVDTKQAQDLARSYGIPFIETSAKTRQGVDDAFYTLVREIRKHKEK
Sequence of KRAS G13D (P62937 whole entry): as the sequence (P62937 whole entry) above
Procedure, shortened: as §1

KRAS G13C = KRAS G13C (Homo sapiens, UniProt P01116+P62937, G13C); experiment: as above; format: biochemical; conditions: KRAS G13C; read-out: KRAS G13C FRET data IC50
Sequence of KRAS G13C (P01116 1-169 isoform P01116-2 G13C): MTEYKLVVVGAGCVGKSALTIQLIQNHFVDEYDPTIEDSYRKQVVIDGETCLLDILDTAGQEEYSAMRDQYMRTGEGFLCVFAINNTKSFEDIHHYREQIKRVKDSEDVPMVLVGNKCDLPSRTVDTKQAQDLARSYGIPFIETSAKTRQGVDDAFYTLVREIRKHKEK
Sequence of KRAS G13C (P62937 whole entry): as the sequence (P62937 whole entry) above
Procedure, shortened: as §1

[1] = system: K-Ras G12C (NCI-H358 cells); experiment: Potency assay: pERK (AlphaLISA SureFire or In-Cell Western); format: cell-based; conditions: Homo sapiens, NCI-H358; H358 KRAS G12C; read-out: pERK EC50
Procedure, shortened: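 NCI-H358 cells plated overnight, then treated 4 h at 37 °C with 10-point 3-fold DMSO dilutions (10 mM top stock), in duplicate. pERK1/2 read by AlphaLISA SureFire Ultra lysate assay or by In-Cell Western with DRAQ5 DNA stain. IC50 from 4-parameter sigmoidal fit of signal vs log concentration.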

Sequence of KRAS G12V (P01116 1-169 isoform P01116-2 G12V limits assumed): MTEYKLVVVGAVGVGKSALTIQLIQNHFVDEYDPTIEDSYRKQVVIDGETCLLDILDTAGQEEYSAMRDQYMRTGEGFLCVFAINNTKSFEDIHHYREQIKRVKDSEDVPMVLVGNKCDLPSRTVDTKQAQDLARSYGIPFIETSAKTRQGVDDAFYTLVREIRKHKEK
Sequence of KRAS G12V (P62937 whole entry): as the sequence (P62937 whole entry) above

CCn1c(-c2cccnc2[C@H](C)OC)c2c3cc(ccc31)-c1csc(n1)C[C@H](NC(=O)[C@H](C(C)C)N(C)C(=O)N(C)C1CN(C(=O)/C=C/C(C)(C)O)C1)C(=O)N1CCC[C@H](N1)C(=O)OCC(C)(C)C2 (atropisomer, axis not shown) [Example A350]
IC50 (KRAS G12V): 100 to 1000 nM
IC50 (KRAS G12S): 100 to 1000 nM
IC50 (KRAS WT): 100 to 1000 nM
IC50 (KRAS G12C): 10 to 100 nM
IC50 (KRAS G12D): 1000 to 10000 nM
IC50 (NRAS G12C): 10 to 100 nM
IC50 (KRAS G13D): 100 to 1000 nM
IC50 (KRAS G13C): 100 to 1000 nM
EC50 [1]: < 5000 nM

C=CC(=O)N1CC[C@H](C(=O)N(C)[C@H](C(=O)N[C@H]2Cc3cc(O)cc(c3)-c3cnc4c(c3)c(c(-c3ccccc3CCOC)n4CC)CC(C)(C)COC(=O)[C@@H]3CCCN(N3)C2=O)C(C)C)C1 [Example A210]
IC50 (KRAS G12V): 1 µM to 10 µM and > 10 µM (3×)
IC50 (KRAS G12S): 1 µM to 10 µM and > 10 µM (3×)
IC50 (KRAS WT): > 10000 nM
IC50 (KRAS G12C): 100 nM to 1 µM and 1 µM to 10 µM and > 10 µM (2×)
IC50 (KRAS G12D): > 10000 nM
IC50 (NRAS G12C): 100 nM to 1 µM and 1 µM to 10 µM and > 10 µM (2×)
IC50 (KRAS G13D): > 10000 nM
IC50 (KRAS G13C): > 10000 nM
EC50 [1]: < 5000 nM

CCn1c(-c2cccnc2[C@H](C)OC)c2c3cc(ccc31)-c1cccc(c1)C[C@H](NC(=O)[C@H](C(C)C)N1CC[C@]3(CCN(C(=O)C#C[C@]4(N(C)C)CCOC4)C3)C1=O)C(=O)N1CCC[C@H](N1)C(=O)OCC(C)(C)C2 [Example A559]
IC50 (KRAS G12V): 1000 to 10000 nM
IC50 (KRAS G12S): 1000 to 10000 nM
IC50 (KRAS WT): 1000 to 10000 nM
IC50 (KRAS G12C): 10 to 100 nM
IC50 (KRAS G12D): 1000 to 10000 nM
IC50 (NRAS G12C): 10 to 100 nM
IC50 (KRAS G13D): 1000 to 10000 nM
IC50 (KRAS G13C): 100 to 1000 nM
EC50 [1]: < 5000 nM

C=CC(=O)N1CC[C@H](C(=O)N(C)[C@H](C(=O)N[C@H]2Cc3cc(O)cc(c3)-c3ccc4c(c3)c(c(-c3cccnc3)n4C3CC3)CC(C)(C)COC(=O)[C@@H]3CCCN(N3)C2=O)C(C)C)C1 [Example A160]
IC50 (KRAS G12V): > 10000 nM
IC50 (KRAS G12S): > 10000 nM
IC50 (KRAS WT): > 10000 nM
IC50 (KRAS G12C): 100 to 1000 nM
IC50 (KRAS G12D): > 10000 nM
IC50 (NRAS G12C): 1000 to 10000 nM
IC50 (KRAS G13D): > 10000 nM
IC50 (KRAS G13C): > 10000 nM
EC50 [1]: < 5000 nM

C=CC(=O)N1CCC2(C1)CN(C(=O)N(C)[C@H](C(=O)N[C@H]1Cc3nc(cs3)-c3ccc4c(c3)c(c(-c3cccnc3[C@H](C)OC)n4CC(F)(F)F)CC(C)(C)COC(=O)C3CCCN(N3)C1=O)C(C)C)C2 (some centres unmarked) [Example A603]
IC50 (KRAS G12V): 100 to 1000 nM
IC50 (KRAS G12S): 100 to 1000 nM
IC50 (KRAS WT): 10 to 100 nM
IC50 (KRAS G12C): 10 to 100 nM
IC50 (KRAS G12D): 100 to 1000 nM
IC50 (NRAS G12C): 10 to 100 nM
IC50 (KRAS G13D): 100 to 1000 nM
IC50 (KRAS G13C): 10 to 100 nM
EC50 [1]: < 5000 nM

C=CC(=O)N1CC[C@H](C(=O)N(C)[C@H](C(=O)N[C@H]2Cc3nsc(n3)-c3ccc4c(c3)c(c(-c3cccnc3[C@H](C)OC)n4CC)CC(C)(C)COC(=O)[C@@H]3CCCN(N3)C2=O)C(C)C)C1 (atropisomer, axis not shown) [Example A694]
IC50 (KRAS G12V): 1000 to 10000 nM
IC50 (KRAS G12S): 1000 to 10000 nM
IC50 (KRAS WT): 1000 to 10000 nM
IC50 (KRAS G12C): 100 to 1000 nM
IC50 (KRAS G12D): 1000 to 10000 nM
IC50 (NRAS G12C): 100 to 1000 nM
IC50 (KRAS G13D): 1000 to 10000 nM
IC50 (KRAS G13C): 100 to 1000 nM
EC50 [1]: < 5000 nM

CCn1c(-c2cccnc2[C@H](C)OC)c2c3cc(ccc31)N1CCO[C@@H](C[C@H](NC(=O)[C@H](C(C)C)N(C)C(=O)[C@@]3(F)CCN(C(=O)C#CC(C)(C)N4CCC4)C3)C(=O)N3CCC[C@H](N3)C(=O)OCC(C)(C)C2)C1 [Example A726]
IC50 (KRAS G12V): 1000 to 10000 nM
IC50 (KRAS G12S): 1000 to 10000 nM
IC50 (KRAS WT): 1000 to 10000 nM
IC50 (KRAS G12D): > 10000 nM
IC50 (NRAS G12C): 10 to 100 nM
IC50 (KRAS G13C): 100 to 1000 nM
EC50 [1]: < 5000 nM

C=CC(=O)N(C)C1CCN(C(=O)N(C)[C@H](C(=O)N[C@H]2Cc3nc(cs3)-c3ccc4c(c3)c(c(-c3cccnc3[C@H](C)OC)n4CC)CC(C)(C)COC(=O)[C@@H]3CCCN(N3)C2=O)C(C)C)C1 (some centres unmarked) [Example A384]
IC50 (KRAS G12C): 10 to 100 nM
IC50 (NRAS G12C): 10 to 100 nM
IC50 (KRAS G13D): 100 to 1000 nM
EC50 [1]: < 5000 nM
